From PubChem BioAssay AID1919009 (Molecular Pharmacology Branch, DTP, NCI, 2023)

System: K24384-001-R-PDC complex spheroid growth
Test: Anticancer human tumor K24384-001-R-PDC patient-derived pancreatic adenocarcinoma cell line growth inhibition [AhR]
Conditions: for IC50: curve of first compound; for viability, T/C: stronger effect = lower value
Summary of the method: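 Complex tumor spheroids co-cultured with HUVEC and human MSC stroma; AhR antagonists tested in combination with standard-of-care and investigational agents. Top concentration at or near clinical Cmax (else 10 microM), half-log dilutions; growth expressed as percent test/control.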

[1] = second compound 0.1 µM, first compound 0.0316 µM
[2] = second compound 0.1 µM, first compound 0.1 µM
[3] = second compound 0.1 µM, first compound 0.316 µM
[4] = second compound 0.1 µM, first compound 1 µM
[5] = second compound 0.1 µM, first compound 3.16 µM
[6] = second compound 0.1 µM, first compound 10 µM
[7] = second compound 0.316 µM, first compound 0.0316 µM
[8] = second compound 0.316 µM, first compound 0.1 µM
[9] = second compound 0.316 µM, first compound 0.316 µM
[10] = second compound 0.316 µM, first compound 1 µM
[11] = second compound 0.316 µM, first compound 3.16 µM
[12] = second compound 0.316 µM, first compound 10 µM
[13] = second compound 1 µM, first compound 0.0316 µM
[14] = second compound 1 µM, first compound 0.1 µM
[15] = second compound 1 µM, first compound 0.316 µM
[16] = second compound 1 µM, first compound 1 µM
[17] = second compound 1 µM, first compound 3.16 µM
[18] = second compound 1 µM, first compound 10 µM
[19] = second compound 3.16 µM, first compound 0.0316 µM
[20] = second compound 3.16 µM, first compound 0.1 µM
[21] = second compound 3.16 µM, first compound 0.316 µM
[22] = second compound 3.16 µM, first compound 1 µM
[23] = second compound 3.16 µM, first compound 3.16 µM
[24] = second compound 3.16 µM, first compound 10 µM
[25] = second compound 10 µM, first compound 0.0316 µM
[26] = second compound 10 µM, first compound 0.1 µM
[27] = second compound 10 µM, first compound 0.316 µM
[28] = second compound 10 µM, first compound 1 µM
[29] = second compound 10 µM, first compound 3.16 µM
[30] = second compound 10 µM, first compound 10 µM
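For viability, T/C in this document: percent of DMSO vehicle-treated spheroid viability set as 100%.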

Row | IC50 (second compound 0.1 µM) [nM] | IC50 (second compound 0.316 µM) [nM] | IC50 (second compound 1 µM) [nM] | IC50 (second compound 3.16 µM) [nM] | IC50 (second compound 10 µM) [nM] | Structure (SMILES) | viability, T/C [1] [%] | viability, T/C [2] [%] | viability, T/C [3] [%] | viability, T/C [4] [%] | viability, T/C [7] [%] | viability, T/C [8] [%] | viability, T/C [9] [%] | viability, T/C [10] [%] | viability, T/C [13] [%] | viability, T/C [14] [%] | viability, T/C [15] [%] | viability, T/C [16] [%] | viability, T/C [19] [%] | viability, T/C [20] [%] | viability, T/C [21] [%] | other results
1 | 563 | 722 | 1650 | 806 | < 31.6 | COc1cc(C2c3cc4c(cc3C(OC3OC5COC(C)OC5C(O)C3O)C3COC(=O)C23)OCO4)cc(OC)c1O (stereo not given) + Cc1cncc(-c2nc(NCCc3c[nH]c4ccccc34)c3ncn(C(C)C)c3n2)c1 | 88.4 | 109 | 62.5 | 41.3 | 101 | 107 | 68.1 | 47.2 | 101 | 90.2 | 81.3 | 54.8 | 105 | 81.8 | 86.4 | viability, T/C [5]: 40%; viability, T/C [6]: 31.1%; viability, T/C [11]: 35.4%; viability, T/C [12]: 33.8%; viability, T/C [17]: 42.1%; viability, T/C [18]: 35.2%; viability, T/C [22]: 41.2%; viability, T/C [23]: 37.1%; viability, T/C [24]: 30.2%; viability, T/C [25]: 13.1%; viability, T/C [26]: 15.2%; viability, T/C [27]: 13.7%; viability, T/C [28]: 5.82%; viability, T/C [29]: 6.89%; viability, T/C [30]: 5.29%
2 | 43.2 | < 31.6 | 42.2 | < 31.6 | < 31.6 | COc1cccc2c1C(=O)c1c(O)c3c(c(O)c1C2=O)CC(O)(C(=O)CO)CC3OC1CC(N)C(O)C(C)O1 (stereo not given) + Cc1cncc(-c2nc(NCCc3c[nH]c4ccccc34)c3ncn(C(C)C)c3n2)c1 | 56.2 | 32.3 | 22 | 6.38 | 43.8 | 39.4 | 18.6 | 4.66 | 53.4 | 39.8 | 14.4 | 4.5 | 41.2 | 35.8 | 10.2 | viability, T/C [5]: 2.85%; viability, T/C [6]: 7.5%; viability, T/C [11]: 4.69%; viability, T/C [12]: 7.35%; viability, T/C [17]: 2.69%; viability, T/C [18]: 5.17%; viability, T/C [22]: 2.01%; viability, T/C [23]: 3.75%; viability, T/C [24]: 5.63%; viability, T/C [25]: 6.65%; viability, T/C [26]: 10.3%; viability, T/C [27]: 4.38%; viability, T/C [28]: 1.31%; viability, T/C [29]: 1.89%; viability, T/C [30]: 2.29%
3 | > 1000 | > 1000 | > 1000 | > 1000 | < 3.16 | Nc1ncn(C2CC(O)C(CO)O2)c(=O)n1 (stereo not given) + Cc1cncc(-c2nc(NCCc3c[nH]c4ccccc34)c3ncn(C(C)C)c3n2)c1 | 92.8 | 77.5 | 62.8 | 51.1 | 95.8 | 77.7 | 72.2 | 63.6 | 103 | 82.5 | 99.4 | 66 | 87.8 | 66.8 | 67.9 | viability, T/C (second compound 0.1 µM, first compound 0.00316 µM): 83.2%; viability, T/C (second compound 0.1 µM, first compound 0.01 µM): 97.6%; viability, T/C (second compound 0.316 µM, first compound 0.00316 µM): 91.1%; viability, T/C (second compound 0.316 µM, first compound 0.01 µM): 101%; viability, T/C (second compound 1 µM, first compound 0.00316 µM): 80.2%; viability, T/C (second compound 1 µM, first compound 0.01 µM): 101%; viability, T/C (second compound 3.16 µM, first compound 0.00316 µM): 83.1%; viability, T/C (second compound 3.16 µM, first compound 0.01 µM): 100%; viability, T/C [22]: 70.2%; viability, T/C (second compound 10 µM, first compound 0.00316 µM): 13.3%; viability, T/C (second compound 10 µM, first compound 0.01 µM): 14.3%; viability, T/C [25]: 14.8%; viability, T/C [26]: 10.8%; viability, T/C [27]: 8.89%; viability, T/C [28]: 11.4%
